In US20240174663A1, “PYRIMIDINE OR PYRIDINE DERIVATIVES USEFUL AS HCN2 MODULATORS” (King's College London, priority 2021, published 2024):
pIC50: −log10 of the molar value. Counter-ions that a name gives are not always drawn.

What was measured:
HCN4 = biological target: T1, HCN4 (Homo sapiens, UniProt Q9Y3Q4); assay: HCN4 assay using PatchXpress 7000A (PX protocol, Example 25); type: cell-based; details: room temperature
T1 sequence (Q9Y3Q4 1-1203): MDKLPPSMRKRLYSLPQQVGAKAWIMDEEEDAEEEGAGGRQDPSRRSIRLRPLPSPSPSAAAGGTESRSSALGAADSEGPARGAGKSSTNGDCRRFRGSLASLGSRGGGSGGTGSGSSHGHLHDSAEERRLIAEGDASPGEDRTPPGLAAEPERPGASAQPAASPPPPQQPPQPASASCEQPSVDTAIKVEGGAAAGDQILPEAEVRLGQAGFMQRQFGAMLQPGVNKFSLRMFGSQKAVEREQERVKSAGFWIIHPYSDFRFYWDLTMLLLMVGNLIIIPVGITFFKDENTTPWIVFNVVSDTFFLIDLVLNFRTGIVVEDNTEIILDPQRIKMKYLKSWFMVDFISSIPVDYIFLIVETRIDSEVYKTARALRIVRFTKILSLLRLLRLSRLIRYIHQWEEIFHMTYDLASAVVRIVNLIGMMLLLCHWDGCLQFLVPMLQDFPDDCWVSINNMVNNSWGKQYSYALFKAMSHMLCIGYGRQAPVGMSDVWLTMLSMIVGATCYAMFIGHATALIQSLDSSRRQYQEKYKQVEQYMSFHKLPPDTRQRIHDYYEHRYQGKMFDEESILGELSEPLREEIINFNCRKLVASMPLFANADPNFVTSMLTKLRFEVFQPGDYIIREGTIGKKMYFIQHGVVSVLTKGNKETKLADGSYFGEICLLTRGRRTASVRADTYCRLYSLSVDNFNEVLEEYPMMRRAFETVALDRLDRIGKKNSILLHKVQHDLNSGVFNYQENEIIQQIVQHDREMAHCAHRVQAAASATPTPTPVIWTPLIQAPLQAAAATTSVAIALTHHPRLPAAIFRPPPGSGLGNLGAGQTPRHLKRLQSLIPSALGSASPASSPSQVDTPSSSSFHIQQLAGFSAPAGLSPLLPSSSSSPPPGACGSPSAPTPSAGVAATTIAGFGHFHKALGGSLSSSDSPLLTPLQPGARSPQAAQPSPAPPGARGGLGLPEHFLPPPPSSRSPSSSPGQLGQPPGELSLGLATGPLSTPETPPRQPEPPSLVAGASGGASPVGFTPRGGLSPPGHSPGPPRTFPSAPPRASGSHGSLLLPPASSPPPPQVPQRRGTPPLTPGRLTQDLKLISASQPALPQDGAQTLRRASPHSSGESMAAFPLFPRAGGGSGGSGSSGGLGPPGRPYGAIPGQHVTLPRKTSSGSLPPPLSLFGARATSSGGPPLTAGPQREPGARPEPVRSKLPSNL
Experimental: (§1) Example 25: Assay for HCN1 HCN2 and HCN4 Using PatchXpress 7000A
(§2) Solutions for recording HCN currents were:
(§3) The peak inward current measured at the end of the pulse to −110 mV (HCN1 and HCN2) or −130 mV (HCN4) was measured and any leak current subtracted to calculate the HCN current. The HCN current amplitude was measured after each control or compound addition and normalized to the control amplitude (Control A).
(§4) All experiments were performed at room temperature (approximately 22° C.).
(§5) Each test compound concentration was applied to the cell for seven (7) minutes, at which point the next cumulative concentration was applied.

HCN2 = biological target: T2, HCN2 (Homo sapiens, UniProt Q9UL51); assay: HCN2 assay using PatchXpress 7000A (PX protocol, Example 25); type: cell-based; details: room temperature
T2 sequence (Q9UL51 1-889): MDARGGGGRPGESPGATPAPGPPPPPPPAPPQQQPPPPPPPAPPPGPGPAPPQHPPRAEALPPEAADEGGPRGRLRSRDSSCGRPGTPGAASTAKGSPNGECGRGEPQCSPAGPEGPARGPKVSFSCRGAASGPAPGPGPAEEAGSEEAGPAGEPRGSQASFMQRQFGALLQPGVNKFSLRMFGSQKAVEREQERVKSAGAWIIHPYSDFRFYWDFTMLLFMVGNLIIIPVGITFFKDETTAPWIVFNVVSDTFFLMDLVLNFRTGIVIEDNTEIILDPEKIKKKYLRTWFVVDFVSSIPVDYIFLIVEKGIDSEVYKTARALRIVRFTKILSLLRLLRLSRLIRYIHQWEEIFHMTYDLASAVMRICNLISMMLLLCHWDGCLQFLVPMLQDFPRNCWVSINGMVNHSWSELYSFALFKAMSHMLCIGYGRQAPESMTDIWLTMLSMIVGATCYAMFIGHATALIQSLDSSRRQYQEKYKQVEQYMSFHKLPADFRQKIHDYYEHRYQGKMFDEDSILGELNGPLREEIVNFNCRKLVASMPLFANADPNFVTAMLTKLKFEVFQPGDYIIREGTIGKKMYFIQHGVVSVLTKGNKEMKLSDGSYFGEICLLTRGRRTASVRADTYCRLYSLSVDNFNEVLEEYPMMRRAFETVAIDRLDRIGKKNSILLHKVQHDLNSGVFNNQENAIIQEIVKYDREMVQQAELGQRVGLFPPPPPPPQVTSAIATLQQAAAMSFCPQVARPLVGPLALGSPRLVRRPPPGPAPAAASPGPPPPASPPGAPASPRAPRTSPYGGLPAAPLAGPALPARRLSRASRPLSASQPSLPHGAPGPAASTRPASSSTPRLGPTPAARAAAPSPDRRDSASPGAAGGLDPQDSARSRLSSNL
Experimental: as §1, §2
The membrane voltage was then stepped back to −30 mV for a further 8 seconds.
as §3, §4, §5

Compound	pIC50 (HCN4)	pIC50 (HCN2)
Cn1nc(-c2cccnc2[C@@H](N)Cc2ccccn2)c2ccccc21 [Example 3, (S)-1-[3-(1-Methyl-1H-indazol-3-yl)pyridine-2-yl]-2-(pyridin-2-yl)ethan-1-amine hydrochloride]	< 4.52	5.24
Cc1ccc(-c2noc3ccccc23)c([C@@H](N)Cc2ccccn2)n1 [Example 9, (S)-1-[3-(Benzoy[d]isoxazol-3-yl)-6-methylpyridine-2-yl]-2-(pyridine-2-yl)ethan-1-amine hydrochloride]	< 4.52	5.49
N[C@@H](Cc1ccccn1)c1ccccc1-c1noc2ncccc12 [Example 2, (S)-1-[2-(Isoxazolo[5,4-b]pyridine-3-yl)phenyl]-2-(pyridin-2-yl)ethan-1-amine]	–	4.99
Cn1nc(-c2ccccc2[C@@H](N)Cc2ccccn2)c2ccncc21 [Example 8, (S)-1-[2-(1-Methyl-1H-pyrazolo[3,4-c]pyridine-3-yl)phenyl]-2-(pyridine-2-yl)ethan-1-amine hydrochloride]	< 4.52	5.10
N[C@@H](Cc1ccccn1)c1cccnc1-c1noc2ccccc12 [Example 5, (S)-1-[2-(Benzoy[d]isoxazol-3-yl)pyridine-3-yl}-2-(pyridine-2-yl)ethan-1-amine hydrochloride]	–	4.72
N#Cc1cccc(C[C@H](N)c2ncccc2-c2noc3ccccc23)n1 [Example 10, (S)-6-{2-Amino-2-[3-(benzoy[d]isoxazol-3-yl)pyridine-2-yl]ethyl}pyridine-2-carbonitrile hydrochloride]	4.78	5.72
CC(c1ccccn1)[C@H](N)c1ncccc1-c1noc2ccccc12 (single isomer, unassigned) [Example 13, hydrochloride]	–	5.02
Cn1nc(-c2ccccc2[C@@H](N)Cc2ccccn2)c2cccnc21 [Example 1, (S)-1-[2-(1-Methyl-1H-pyrazolo[3,4-b]pyridine-3-yl)phenyl]-2-(pyridin-2-yl)ethan-1-amine hydrochloride]	–	4.77
CC(c1ccccn1)[C@H](N)c1ncccc1-c1noc2ccccc12 (single isomer, unassigned) [Example 12, hydrochloride]	–	5.35
Cc1cccc(C[C@H](N)c2ncccc2-c2noc3ccccc23)n1 [Example 11, (S)-1-[3-(Benzoy[d]isoxazol-3-yl)pyridine-2-yl]-2-(6-methylpyridine-2-yl)ethan-1-amine hydrochloride]	4.64	5.29
N[C@@H](Cc1ccccn1)c1ccncc1-c1noc2ccccc12 [Example 7, (S)-1-[3-(Benzoy[d]isoxazol-3-yl)pyridine-4-yl}-2-(pyridine-2-yl)ethan-1-amine hydrochloride]	–	4.86
N[C@@H](Cc1ccccn1)c1ncccc1-c1noc2ccccc12 [Example 6, (S)-1-[3-(Benzoy[d]isoxazol-3-yl)pyridine-2-yl}-2-(pyridine-2-yl)ethan-1-amine hydrochloride]	< 4.52	5.66

Second part, the molecule after the results:

pIC50 (HCN4)	pIC50 (HCN2)	Compound
< 4.52	5.11	Cc1cccc(C[C@H](N)c2ccccc2-c2nn(C)c3cnccc23)n1 [Example 15, (S)-1-[2-(1-Methyl-1H-pyrazolo[3,4-c]pyridine-3-yl)phenyl]-2-(6-methylpyridine-2-yl)ethan-1-amine hydrochloride]
< 4.52	5.05	CN(C)C(=O)CCc1cccc(C[C@H](N)c2ncccc2-c2noc3ccccc23)n1 [Example 21, (S)-3-(6-{2-Amino-2-[3-(benzo[d]isoxazol-3-yl)pyridine-2-ylethyl}priding-2-yl)-N,N-dimethylpropanamide hydrochloride]
5.02	5.77	N[C@@H](Cc1ncccc1F)c1ncccc1-c1noc2ccccc12 [Example 23, (S)-1-[3-(Benzo[d]isoxazol-3-yl)pyridine-2-yl]-2-(3-fluoropyridine-2-yl)ethan-1-amine hydrochloride]
< 4.52	5.19	NC(=O)c1cccc(C[C@H](N)c2ncccc2-c2noc3ccccc23)n1 [Example 17, (S)-6-{2-Amino-2-[3-(benzoy[d]isoxazol-3-yl)pyridine-2-yl]ethyl}pyridine-2-carboxamide]
< 4.52	5.17	Cn1nc(-c2ccccc2[C@@H](N)Cc2cccc(C#N)n2)c2ccncc21 [Example 16, (S)-6-{2-Amino-2-[2-(1-methyl-1H-pyrazolo[3,4-c]pyridine-3-yl)phenyl]ethyl}pyridine-2-carbonitrile]
< 4.52	4.95	CN(C)C(=O)c1cccc(C[C@H](N)c2ncccc2-c2noc3ccccc23)n1 [Example 18, (S)-6-{2-Amino-2-[3-(benzoy[d]isoxazol-3-yl)pyridine-2-yl]ethyl}-N,N-dimethylpyridine-2-carboxamide]
4.99	5.80	Cc1ccc(Br)nc1C[C@H](N)c1ncccc1-c1noc2ccccc12 [Example 22, (S)-1-[3-(Benzo[d]isoxazol-3-yl)pyridine-2-yl]-2-(6-bromo-3-methylpyridine-2-yl)ethan-1-amine hydrochloride]
< 4.52	5.05	N[C@@H](Cc1ncccn1)c1ncccc1-c1noc2ccccc12 [Example 20, (S)-1-[3-(Benzo[d]isoxazol-3-yl)pyridine-2-yl]-2-(pyrimidin-2-yl)ethan-1-amine]
< 4.52	5.40	N[C@@H](Cc1cccc(OCCO)n1)c1ncccc1-c1noc2ccccc12 [Example 19, (S)-2-[(6-{2-Amino-2-[3-(benzoy[d]isoxazol-3-yl)pyridine-2-yl]ethyl}pyridine-2-yl)oxy]ethano-1-ol]
–	5.38	Cc1ccc(F)c(C[C@H](N)c2ncccc2-c2noc3ccccc23)n1 [Example 24, (S)-1-[3-(Benzo[d]isoxazol-3-yl)pyridine-2-yl]-2-(3-fluoro-6-methylpyridine-2-yl)ethan-1-amine hydrochloride]
–	4.91	N[C@@H](Cc1ccccn1)c1ccccc1-c1noc2cnccc12 [Example 14, (S)-1-[2-(Isoxazolo[5,4-c]pyridine-3-yl)phenyl]-2-(pyridin-2-yl)ethan-1-amine]
